Measurements taken from US4910211A, “Novel benzothiazole and antirheumatic agent comprising it as an active ingredient” (Kanebo Ltd., priority 1987, dated 1990).
“Also recorded” adds a separate entry of the source. Like-named read-outs stand apart in the source and are kept apart here.

What was measured:
[1] = system: rat adjuvant arthritis; assay: Effect on the Development of Adjuvant Arthritis; type: in vivo, Fischer male rats; settings: oral; for inhibition in vivo at 100 mg/kg / inhibition in vivo at 50 mg/kg: Rattus norvegicus, 504 h, 21 days after adjuvant, mean ± standard error
Method: Fischer male rats (8 weeks old; body weight 120-180 g) were grouped so that the average of body weights among the groups were nearly the same. Then, 0.1 ml of complete adjuvant obtained by suspending Mycobacterium butyricum (Difco Laboratories) in paraffin oil in a concentration of 6 mg/ml was injected into the footpad of the right hind paw to induce adjuvant arthritis.
Each of the test compounds was dissolved or suspended in a 1% gum arabic solution, and administered orally once a day on six days a week over a period of three weeks starting from the day of the adjuvant injection. The group administered with a 1% gum arabic solution instead of the test compound was served for a control. The volumes of both hind paws were measured plethysmographically by displacement of water at various times after injection of the adjuvant, and the percent paw edema inhibition was calculated from the following equation. [formula] Eexp : the percent paw edema in rats treated with the test compound Econt : the mean of percent paw edema in rats of the control group
The percent paw edema was calculated from the following equation. [formula] Vpost : the paw volume after treatment with the adjuvant Vpre : the paw volume before treatment with the adjuvant

[2] = system: Delayed-Type Hypersensitivity (DTH), enhanced immune reaction; assay: Effect on Delayed-Type Hypersensitivity (DTH): enhanced immune reaction; type: in vivo, BALB/c male mice; settings: for Footpad swelling inhibition / Footpad swelling: oral, cyclophosphamide 75 mg/kg; for Footpad swelling: mean ± standard error
Method: Three days after the sensitization, 0.05 ml of 8×10^9 /ml SRBC was injected into the footpad of the right hind paw for elicitation of DTH. Twenty four hours later, footpad swelling (mm) was measured in the same way as in (A) above, and the inhibition (%) of footpad swelling was calculated from the following equation.
The test compound was dissolved or suspended in a 1% gum arabic solution, and administered orally once a day over a period of 7 days starting from four days before the sensitization (immediately after administration of cyclophosphamide). To a control group, a 1% gum arabic solution was administered instead of the test compound. The group, administered with physiological saline instead of cyclophosphamide and a 1% gum arabic solution instead of test compound respectively, was served for a normal group. [formula] Tcont : the mean of the footpad swelling in mice of the control group Texp : the mean of the footpad swelling in mice treated with the test compound
Tnor : the mean of the footpad swelling in mice of the normal group.

[3] = system: Delayed-Type Hypersensitivity (DTH), normal immune reaction; assay: Effect on Delayed-Type Hypersensitivity (DTH): normal immune reaction; type: in vivo, BALB/c male mice; settings: for Footpad swelling inhibition / Footpad swelling: oral, normal immune reaction; for Footpad swelling: mean ± standard error
Method: BALB/c male mice (8 weeks old) were sensitized by injection into the tail vein with 0.2 ml of 5×10^6 /ml sheep red blood cells (SRBC). Three days after the sensitization, 0.05 ml of 8×10^9 /ml SRBC was injected into the footpad of the right hind paw for elicitation of DTH. Footpad thickness was measured immediately before and 24 hours after the elicitation with a dial thickness gauge. The level of DTH was expressed as footpad swelling (mm) at 24 hour. The inhibition (%) of footpad swelling was calculated from the following equation.
The test compound was dissolved or suspended in a 1% gum arabic solution, and administered orally once a day over a period of 7 days starting from four days before the sensitization. To a control group, a 1% gum arabic solution was administered instead of the test compound. [formula] Texp : the mean of the footpad swelling in mice treated with the test compound
Tcont : the mean of the footpad swelling in mice of the control group

[4] = in vivo; settings: mouse, oral, mice died within a week, probit method
Method: ddY male mice (body weight about 23 g) were fasted overnight, and the test compound dissolved or suspended in a 1% gum arabic solution administered orally. From the number of mice died within a week, the LD50 value was calculated by the probit method.

[5] = system: rat carrageenin-induced paw edema; assay: rat carrageenin-induced paw edema (acute inflammation); type: in vivo; settings: 100 mg/kg
[6] = system: rat mustard-induced paw edema; assay: rat mustard-induced paw edema (subacute inflammation); type: in vivo; settings: 100 mg/kg
[7] = 100 mg/kg, read-out: Paw edema inhibition, Non-treated paw
[8] = 100 mg/kg, read-out: Paw edema inhibition, Treated paw
[9] = 3 mg/kg, ** P < 0.01 vs control
[10] = 10 mg/kg, ** P < 0.01 vs control
[11] = 30 mg/kg, * P < 0.05, ** P < 0.01 vs control
[12] = 100 mg/kg, * P < 0.05 vs control

CC(=O)Oc1ccc2sc(-c3ccc(C)cc3)nc2c1 [A, 5-acetoxy-2-(4-methylphenyl)benzothiazole]
inhibition in vivo at 100 mg/kg [1, 7]: 4.5 ± 11.7%
inhibition in vivo at 100 mg/kg [1, 8]: 12.9 ± 4.4%

CC(=O)Oc1ccc2nc(-c3ccc(C)cc3)sc2c1 [B, 6-acetoxy-2-(4-methylphenyl)benzothiazole]
inhibition in vivo at 100 mg/kg [1, 7]: 4.4 ± 14.2%
inhibition in vivo at 100 mg/kg [1, 8]: -7.6 ± 8.8%

CC(=O)Oc1cccc2nc(-c3ccc(C)cc3)sc12 [C, 7-acetoxy-2-(4-methylphenyl)benzothiazole]
inhibition in vivo at 100 mg/kg [1, 7]: 8.9 ± 10.4%
inhibition in vivo at 100 mg/kg [1, 8]: 16.6 ± 4.1%

CC(=O)Oc1cccc2sc(-c3ccc(C)cc3)nc12 [Example 5, 4-Acetoxy-2-(4-methylphenyl)benzothiazole]
Footpad swelling inhibition ([2]; 1 mg/kg): 57.1%
Footpad swelling ([2]; 1 mg/kg, * P < 0.05 vs control): 37 ± 5 × 10^-2 mm
Footpad swelling inhibition ([2]; 3 mg/kg): 66.7%
Footpad swelling [2, 9]: 35 ± 1 × 10^-2 mm
Footpad swelling inhibition ([2]; 10 mg/kg): 85.7%
Footpad swelling [2, 10]: 31 ± 3 × 10^-2 mm
Footpad swelling inhibition ([2]; 30 mg/kg): 76.2%
Footpad swelling [2, 11]: 33 ± 2 × 10^-2 mm
Footpad swelling inhibition ([2]; 100 mg/kg): 57.1%
Footpad swelling [2, 12]: 37 ± 4 × 10^-2 mm
inhibition in vivo at 100 mg/kg [1, 7]: 32 ± 7.7%
inhibition in vivo at 100 mg/kg [1, 8]: 31.8 ± 3.9%
Footpad swelling inhibition ([3]; 1 mg/kg): 0.0%
Footpad swelling ([3]; 1 mg/kg): 59 ± 5 × 10^-2 mm
Footpad swelling inhibition ([3]; 3 mg/kg): -6.8%
Footpad swelling ([3]; 3 mg/kg): 63 ± 6 × 10^-2 mm
Footpad swelling inhibition ([3]; 10 mg/kg): 3.4%
Footpad swelling ([3]; 10 mg/kg): 57 ± 6 × 10^-2 mm
Footpad swelling inhibition ([3]; 30 mg/kg): -8.5%
Footpad swelling ([3]; 30 mg/kg): 64 ± 6 × 10^-2 mm
Footpad swelling inhibition ([3]; 100 mg/kg): 10.2%
Footpad swelling ([3]; 100 mg/kg): 53 ± 4 × 10^-2 mm
LD50 at 168 h [4]: > 3000 mg/kg

COc1ccc(-c2nc3c(OC(C)=O)cccc3s2)cc1 [Example 6, 4-Acetoxy-2-(4-methoxyphenyl)benzothiazole]
inhibition in vivo at 100 mg/kg [1, 7]: 27.4 ± 10.8%
inhibition in vivo at 100 mg/kg [1, 8]: 24.7 ± 3.7%
LD50 at 168 h [4]: > 3000 mg/kg

CC(=O)Oc1cccc2sc(-c3ccc(C(=O)O)cc3)nc12 [Example 7, 4-(4-Acetoxybenzothiazol-2-yl)benzoic acid]
inhibition in vivo at 100 mg/kg [1, 7]: 38.5 ± 6%
inhibition in vivo at 100 mg/kg [1, 8]: 29.9 ± 2.9%
LD50 at 168 h [4]: 2020 mg/kg

COC(=O)c1ccc(-c2nc3c(OC(C)=O)cccc3s2)cc1 [Example 8, Methyl 4-(4-acetoxybenzothiazol-2-yl)benzoate]
inhibition in vivo at 100 mg/kg [1, 7]: 28.6 ± 8.8%
inhibition in vivo at 100 mg/kg [1, 8]: 29.3 ± 3.6%
LD50 at 168 h [4]: > 3000 mg/kg

O=C([O-])c1ccccc1Nc1cc(Cl)ccc1C(=O)[O-].[Na+].[Na+] [Lobenzarit disodium, N-(2-carboxyphenyl)-4-chloroanthranilic acid disodium salt]
Footpad swelling inhibition ([2]; 1 mg/kg): 20.0%
Footpad swelling ([2]; 1 mg/kg, * P < 0.05 vs control): 47 ± 3 × 10^-2 mm
Footpad swelling inhibition ([2]; 3 mg/kg): 40.0%
Footpad swelling [2, 9]: 43 ± 3 × 10^-2 mm
Footpad swelling inhibition ([2]; 10 mg/kg): -10.0%
Footpad swelling [2, 10]: 53 ± 3 × 10^-2 mm
Footpad swelling inhibition ([2]; 30 mg/kg): 50.0%
Footpad swelling [2, 11]: 41 ± 3 × 10^-2 mm
Footpad swelling inhibition ([2]; 100 mg/kg): 50.0%
Footpad swelling [2, 12]: 41 ± 3 × 10^-2 mm
effect on DTH in an enhanced immune reaction (in words) ([2]; any doses): suppresses an abnormally enhanced immune reaction
effect on rat carrageenin-induced paw edema [5]: no effect
death during the test ([1]; 100 mg/kg, adjuvant arthritis rats, footnote of Table 1): Four animals out of 16
inhibition in vivo at 50 mg/kg ([1]; read-out: Paw edema inhibition, Non-treated paw): -9 ± 12%
inhibition in vivo at 50 mg/kg ([1]; read-out: Paw edema inhibition, Treated paw): 6.3 ± 5.3%
inhibition in vivo at 100 mg/kg [1, 7]: -1.7 ± 11.4%
inhibition in vivo at 100 mg/kg [1, 8]: 15.1 ± 6.6%
effect on rat mustard-induced paw edema [6]: no effect
Footpad swelling inhibition ([3]; 1 mg/kg): 4.3%
Footpad swelling ([3]; 1 mg/kg): 67 ± 2 × 10^-2 mm
Footpad swelling inhibition ([3]; 3 mg/kg): 8.6%
Footpad swelling ([3]; 3 mg/kg): 64 ± 5 × 10^-2 mm
Footpad swelling inhibition ([3]; 10 mg/kg): -8.6%
Footpad swelling ([3]; 10 mg/kg): 76 ± 6 × 10^-2 mm
Footpad swelling inhibition ([3]; 30 mg/kg): 7.1%
Footpad swelling ([3]; 30 mg/kg): 65 ± 4 × 10^-2 mm
Footpad swelling inhibition ([3]; 100 mg/kg): 7.1%
Footpad swelling ([3]; 100 mg/kg): 65 ± 5 × 10^-2 mm
effect on DTH in a normal immune reaction (in words) ([3]; any doses, disodium salt): did not inhibit footpad swelling at any doses; also recorded: no effect on a normal immune reaction
